Experimental data published in patent US8846758B2, “Methods of decreasing glycosylated hemoglobin in patients with dyslipidemia” (TWi Biotechnology, Inc., priority 2011, dated 2014).

Key:
[1] = system: patients with type 2 diabetes mellitus inadequately controlled by previous antidiabetic therapy; test: Randomized, double-blind, placebo-controlled study of diacerin in uncontrolled type 2 diabetes mellitus: HbA1c; format: in vivo, human
From the text: To evaluate the efficacy and safety of diacerin for the treatment of type 2 diabetes mellitus (DM).
To compare the efficacy of add-on diacerin with no add-on treatment (placebo) on HbA1c after 24-week double-blind treatment in Type 2 DM patients inadequately controlled by previous antidiabetic therapy.
Male or female patients (BMI≦35 kg/m^2) with type 2 diabetes mellitus on a stable oral hypoglycemic monotherapy for at least 3 months prior to screening visit. The HbA1c measurements taken at screening visit must be between 7% and 12%. Patients enrolled in the study must be receiving one or more oral antihyperglycemic agents including sulfonylurea, biguanides, alpha-glucosidase inhibitors, thiazolidinediones, and nonsulfonylurea insulin secretagogues.
(§1) This was a prospective, randomized, double-blind, and parallel comparison study comparing diacerin 50 mg versus placebo in patients with type 2 diabetes mellitus inadequately controlled by previous antidiabetic therapy. The starting dose of diacerin was 50 mg once daily every morning for 4 weeks and could be adjusted up to 50 mg twice daily (morning and evening) if patients have become accustomed to the medication. Patients were screened for eligibility four weeks (week—4) prior to entry at baseline (week 0). During this 4-week screening period, the participants continued their previous antidiabetic therapy, dietary habits, and other lifestyle habits. In order to be eligible for randomization following the 4-week screening period, patients must not have experienced hypoglycemia and must have had two fasting plasma glucose (FPG) measurements of between 135 to 250 mg/dL. At the end of the screening period, patients who met eligibility requirements were randomly assigned to receive diacerin 50 mg or placebo twice a day for 24 weeks observation. During treatment/observation period, the previous antidiabetic therapy including the class and/or dosage was not changed. Patients were asked to attend the center on eight occasions (screening, baseline, week 4, 8, 12, 16, 20 and 24) during the trial. The total study duration including the screening period for each patient was 28 weeks. There was a two weeks long follow-up period after completion of the treatment/observation. During this follow-up period, patients were followed for adverse events.
The difference (diacerin vs. placebo) of HbA1c reduction between the two treatment groups was analyzed by analysis of covariance (ANCOVA) with baseline value as a covariate. The corresponding 95% confidence interval was calculated. Within-group changes were also analyzed, with paired t test used to evaluate differences from baseline in each treatment group.
For the efficacy parameters, descriptive statistics were presented by visit. Statistical analysis was performed to assess the mean change from baseline. The area under the concentration-time curve (AUC) was used for evaluating the parameters measured by oral glucose tolerance test.
A dyslipidemia sub-group was assembled, wherein subjects had the following baseline levels: a) plasma cholesterol levels greater than 200 mg/dl, or b) plasma triglyceride levels greater than 150 mg/dl, or c) plasma LDL levels greater than 100 mg/dl. The effects of administering […] to the patients in this dyslipidemia sub-group were analyzed by paired t-test compared with the placebo group.
Subjects (n=76) were randomized in a 1:1 ratio to receive twice-daily diacerin 50 mg (n=38), or placebo (n=38) for 24 weeks. 26 subjects in the diacerin group finished the whole treatment period. Within these 26 subjects, there were 16 subjects with plasma cholesterol levels greater than 200 mg/dl, or plasma triglyceride levels greater than 150 mg/dl, or plasma LDL levels greater than 100 mg/dl at baseline respectively. Plasma cholesterol, triglyceride and LDL levels in the other 10 subjects were normal in the baseline. Thus, there were 16 subjects in the dyslipidemia subgroup.

[2] = Same study: body weight and lipid profiles; format: in vivo, human; details: diacerin 50 mg twice daily, 24 weeks
Protocol: as §1, with “Patients were asked to attend the center on eight occasions (screening, baseline, week 4, 8, 12, 16, 20 and 24) during the trial. The total study duration including the screening period for each patient was 28 weeks. There was a two weeks long follow-up period after completion of the treatment/observation. During this follow-up period, patients were followed for adverse events.” left out
For the efficacy parameters, descriptive statistics were presented by visit. […] The area under the concentration-time curve (AUC) was used for evaluating the parameters measured by oral glucose tolerance test. […]

CC(=O)Oc1cccc2c1C(=O)c1c(OC(C)=O)cc(C(=O)O)cc1C2=O [diacerin, 4,5-bis(acetyloxy)-9,10-dioxo-2-anthracene carboxylic acid]
HbA1c mean change from baseline, week 24 ([1]; All subjects (N=26) completing 24 weeks, diacerin 50 mg twice daily add-on): −0.63%
HbA1c mean change from baseline, week 24 ([1]; Dyslipidemia subgroup (N=16), diacerin 50 mg twice daily, 24 weeks): −0.82%
HbA1c mean change from baseline, week 24 ([1]; Hyper LDL-cholesterolemia subgroup (N=11), diacerin 50 mg twice daily, 24 weeks): −0.84%
HbA1c mean change from baseline, week 24 ([1]; Hypercholesterolemia subgroup (N=7), diacerin 50 mg twice daily, 24 weeks): −0.76%
HbA1c mean change from baseline, week 24 ([1]; Hypertriglyceridemia or hypercholesterolemia subgroup (N=14), diacerin 50 mg twice daily, 24 weeks): −0.89%
HbA1c mean change from baseline, week 24 ([1]; Hypertriglyceridemia subgroup (N=11), diacerin 50 mg twice daily, 24 weeks): −0.83%
HbA1c mean change from baseline, week 24 ([1]; Normal lipid profiles subgroup (N=10), diacerin 50 mg twice daily, 24 weeks): −0.30%
decrease of HbA1c levels compared with the placebo group ([1]; after 24-week treatment, all subjects, p<0.05): about 0.63%
patients whose HbA1c levels decreased by more than or equal to 0.5% ([1]; diacerin group, 13 of 26 patients, 24 weeks): 50%
patients whose HbA1c levels decreased by more than or equal to 0.5% ([1]; dyslipidemia subgroup, 10 of 16 patients, 24 weeks): 62.5%
decrease of HbA1c levels compared with the baseline ([1]; dyslipidemia subgroup, after 24-week treatment): about 0.82%
patients whose HbA1c levels decreased by more than or equal to 0.5% ([1]; hypercholesterolemia subgroup, 4 of 7 patients, 24 weeks): 57.1%
patients whose HbA1c levels decreased by more than or equal to 0.5% ([1]; hypertriglyceridemia or hypercholesterolemia subgroup, 10 of 14 patients, 24 weeks): 71.4%
patients whose HbA1c levels decreased by more than or equal to 0.5% ([1]; hypertriglyceridemia subgroup, 7 of 11 patients, 24 weeks): 63.6%
patients whose HbA1c levels decreased by more than or equal to 0.5% ([1]; normal plasma lipid profiles, 4 of 10 patients, 24 weeks): 40%
decrease of HbA1c levels compared with the baseline ([1]; type 2 diabetic patients with normal lipid profile, after 24-week treatment): about 0.30%
changes in body weight compared with the placebo group [2]: no significant changes
changes in lipid profiles compared with the placebo group [2]: no significant changes
